Laboratory results: paper PMC10552397 (Cell Communication and Signaling : CCS, 2023)

How the values were obtained:
HeLa wt cells [1] = assay: Immunofluorescence of LC3 and LAMP1; type: cell-based; conditions: 2 h; prodigiosin 100 nM, BafA1 10 nM
Procedure: (§1) For immunofluorescence microscopy, HeLa cells were seeded on glass coverslips in 24-well plates. After treatment, cells were fixed in 4% paraformaldehyde for 15 min on ice, quenched with 50 mM NH4Cl for 15 min and permeabilized with 50 µg/mL digitonin (Sigma-Aldrich, St. Louis, MO, USA, #D141) for 5 min. Fixed samples were blocked with 3% BSA (Roth, Karlsruhe, Germany, #8076) for 30 min or overnight and incubated with primary antibodies diluted in 3% BSA for 2 h. Samples were then washed three times with DPBS, incubated with the appropriate secondary antibodies diluted in 3% BSA for 30 min and washed three times with DPBS. Afterwards, cells were embedded in ProLong Glass Antifade Mountant (Thermo Fisher Scientific, Waltham, MA, USA, #P36980) containing 1 µg/mL DAPI (Roth, Karlsruhe, Germany, #6335.1). Images were recorded with an Axio Observer 7 fluorescence microscope (Carl Zeiss Microscopy, Oberkochen, Germany) using a 40x/1,4 Oil DIC M27 Plan-Apochromat objective (Carl Zeiss Microscopy, Oberkochen, Germany) and an ApoTome 2 (Carl Zeiss Microscopy, Oberkochen, Germany).

HeLa wt cells [2] = assay: Immunofluorescence of GRASP55 and LC3; type: cell-based; conditions: 6 h; BafA1 10 nM
Procedure: as §1

In the case of `CO/C1=C\C(C)=C\[C@@H](C)[C@@H](O)[C@@H](C)C/C(C)=C/C=C/[C@H](OC)[C@@H]([C@@H](C)[C@@H](O)[C@H](C)[C@@]2(O)C[C@@H](O)[C@H](C)[C@@H](C(C)C)O2)OC1=O` [BafA1, bafilomycin A1, reference compound], the LC3-positive structures (HeLa wt cells [1]) is reported as “only minor”, the “co-localization of LC3- and LAMP1-positive structures” value (HeLa wt cells [1]) is reported as “comparatively low” and the “co-localization of LC3 and GRASP55” value (HeLa wt cells [2]) is reported as “no significant increase”. The “number of LC3 dots” value (HeLa wt cells [2]) was “enriched”.
